Here are results for two compounds from patent publication US20030186870A1, “Therapeutic methods and compositions for the treatment of impaired interpersonal and behavioral disorders” (priority 1999, published 2003).

Where no end group is shown, it is not given here.

Data set [1] has as its system male rats. The following applies: cited from earlier work.
The subject of data set [2] is male Wistar rats. Description: Irwin test. Format: in vivo, rat. Particulars: tail vein injection. Here is the method: An Irwin test was performed on 12 male Wistar rats (Iffa Credo, L'Arbresles, France), weighing 260-280 g. They were housed in groups of 4 in a climate controlled room with a 12h light:dark cycle (light 8:00 PM-8:00 AM) and had access to food and water ad libitum. After a seven day acclimatization period, the rats were weighed, identified and randomly assigned to one of the four treatment groups. The drug was injected to the tail vein of the rats according to the group dose.
Observations were performed 15, 30, 60 and 120 minutes after administration. Among the most noticeable results are the results concerning the awareness state of the rats.

For the compound `CC[C@H](C)[C@@H]1NC(=O)[C@H](Cc2ccc(O)cc2)NC(=O)[C@@H](N)CSSC[C@@H](C(=O)N2CCC[C@H]2C(=O)N[C@@H](CC(C)C)C(=O)NCC(N)=O)NC(=O)[C@H](CC(N)=O)NC(=O)[C@H](CCC(N)=O)NC1=O` [oxytocin], the locomotion result in data set [1] (high doses) was “decrease locomotion”. Also, the anxiolytic-like effect result in data set [1] (low doses) was “anxiolytic-like effect”. Turning to QHNPR [FG-005, Gln-His-Asn-Pro-Arg], the aggressiveness entry in data set [2] was “not associated with an increase of aggressiveness”.
